Reference: PMC11123921, “Synthesis and Evaluation of 5-(Heteroarylmethylene)hydantoins as Glycogen Synthase Kinase-3β Inhibitors” (Pharmaceuticals, 2024)
Structures can show the parent of a compound that is named as a salt.

Molecular target: T1, Staphylococcus aureus pyruvate carboxylase (SaPC) (Staphylococcus aureus, UniProt A0A0H3JRU9)
T1 sequence (A0A0H3JRU9 1-1150): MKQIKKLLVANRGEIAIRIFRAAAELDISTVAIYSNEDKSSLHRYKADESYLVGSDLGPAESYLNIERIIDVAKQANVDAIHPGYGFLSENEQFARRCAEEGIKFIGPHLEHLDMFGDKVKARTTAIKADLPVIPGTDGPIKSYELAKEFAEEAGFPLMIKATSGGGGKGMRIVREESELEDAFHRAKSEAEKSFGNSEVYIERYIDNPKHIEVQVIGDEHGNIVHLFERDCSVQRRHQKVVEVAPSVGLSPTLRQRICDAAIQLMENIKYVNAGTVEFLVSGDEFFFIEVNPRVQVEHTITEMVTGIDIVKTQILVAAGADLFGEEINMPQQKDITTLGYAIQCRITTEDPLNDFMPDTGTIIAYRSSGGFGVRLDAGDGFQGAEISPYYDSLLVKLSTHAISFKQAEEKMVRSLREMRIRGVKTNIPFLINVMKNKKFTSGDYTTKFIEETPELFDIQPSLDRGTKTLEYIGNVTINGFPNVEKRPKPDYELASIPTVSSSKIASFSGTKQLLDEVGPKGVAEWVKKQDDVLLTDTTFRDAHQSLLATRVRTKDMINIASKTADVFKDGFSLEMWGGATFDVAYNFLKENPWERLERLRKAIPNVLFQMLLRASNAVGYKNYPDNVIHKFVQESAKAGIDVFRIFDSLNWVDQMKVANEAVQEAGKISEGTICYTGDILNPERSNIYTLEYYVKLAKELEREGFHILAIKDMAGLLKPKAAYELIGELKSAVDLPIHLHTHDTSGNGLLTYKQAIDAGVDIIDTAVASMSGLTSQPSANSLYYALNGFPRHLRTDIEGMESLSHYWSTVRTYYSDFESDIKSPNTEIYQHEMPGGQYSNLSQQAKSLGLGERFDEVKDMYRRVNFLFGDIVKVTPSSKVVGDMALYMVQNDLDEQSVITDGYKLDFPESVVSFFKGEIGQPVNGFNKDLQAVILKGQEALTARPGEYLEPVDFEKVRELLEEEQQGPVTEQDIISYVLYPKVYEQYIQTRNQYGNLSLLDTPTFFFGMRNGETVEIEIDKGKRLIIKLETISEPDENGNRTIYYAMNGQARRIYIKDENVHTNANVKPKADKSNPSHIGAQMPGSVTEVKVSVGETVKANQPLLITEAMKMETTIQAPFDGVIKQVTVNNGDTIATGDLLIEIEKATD
Test: biochemical
Conditions: isolated SaPC

IC50 | Compound
> 1 mM | O=C1NC(=O)/C(=C/c2cccnc2)N1 [Compound 19, (Z)-5-[(3′-Pyridinyl)methylene]-2,4-imidazolidinedione]
> 1 mM | O=C1NC(=O)/C(=C/c2cccc(Br)n2)N1 [Compound 27, (Z)-5-[(6′-Bromo-2-pyridinyl)methylene]-2,4-imidazolidinedione]
> 1 mM | O=C1NC(=O)/C(=C/c2ncccc2Cl)N1 [Compound 24, (Z)-5-[(3′-Chloro-2-pyridinyl)methylene]-2,4-imidazolidinedione-HCl]
> 1 mM | Cc1ccc(/C=C2\NC(=O)NC2=O)nc1 [Compound 22, (Z)-5-[(5′-Methyl-2-pyridinyl)methylene]-2,4-imidazolidinedione]

Tested on: not given
Test: not given
Conditions: not given

melting point | Compound
> 255 °C | O=C1NC(=O)/C(=C/c2cccnc2)N1 [Compound 19, (Z)-5-[(3′-Pyridinyl)methylene]-2,4-imidazolidinedione]
> 250 °C | O=C1NC(=O)/C(=C/c2cccc(Br)n2)N1 [Compound 27, (Z)-5-[(6′-Bromo-2-pyridinyl)methylene]-2,4-imidazolidinedione]
> 250 °C | Cc1ccc(/C=C2\NC(=O)NC2=O)nc1 [Compound 22, (Z)-5-[(5′-Methyl-2-pyridinyl)methylene]-2,4-imidazolidinedione]

Molecular target: human matrix metalloproteinase-12 (Homo sapiens, UniProt P39900)
Sequence (P39900 106-470): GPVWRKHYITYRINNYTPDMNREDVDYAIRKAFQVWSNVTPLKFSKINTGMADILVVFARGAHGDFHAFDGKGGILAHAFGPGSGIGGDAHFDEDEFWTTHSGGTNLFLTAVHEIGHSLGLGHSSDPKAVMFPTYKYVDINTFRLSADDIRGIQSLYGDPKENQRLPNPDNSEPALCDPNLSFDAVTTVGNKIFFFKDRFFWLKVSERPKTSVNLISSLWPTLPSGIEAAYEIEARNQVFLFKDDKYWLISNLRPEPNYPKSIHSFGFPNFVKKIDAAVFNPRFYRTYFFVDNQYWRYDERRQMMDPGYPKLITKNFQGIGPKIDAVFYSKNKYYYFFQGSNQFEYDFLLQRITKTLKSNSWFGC
Test: Matrix metalloproteinase-12 fluorogenic substrate assay
Type: biochemical
Conditions: 25 μM compound; read-out: MMP-12 % Activity @ 25 μM
Experimental: (§1) 5-(Heteroarylmethylene)hydantoins were evaluated as inhibitors for MMP-12 at fixed concentrations of 200 and 25 μM (Table 1). At 200 μM of 20–24, the activity of MMP-12 was ≤50% the activity of positive control; for compounds 21, 24, and 25 at 25 μM, the activity of MMP12 was 69–74% while the activity for the others was >80%. […] A select subset of the 5-(heteroarylmethylene)hydantoins were evaluated as inhibitors of human carbonic anhydrase II (hCAII) at 200 μM (Table 1). […] Finally, this same subset of 5-(heteroarylmethylene)hydantoins were evaluated as inhibitors of isolated S. aureus pyruvate carboxylase (SaPC) in a fixed-time assay (Table 1). No inhibitory activity was observed up to 1000 μM.
Assays for human matrix metalloproteinase-12 activity were performed in a 96-well plate format for a total reaction volume of 100 μL, in an assay modified from Day and Cohen. All assay reagents were prepared and maintained at 22 °C until warmed to 37 °C. The omniMMP fluorogenic substrate and MMP-12 enzyme were prepared in assay buffer (50 mM HEPES, 10 mM CaCl2, 0.05% Brij-35, pH of 7.52), and small molecule effectors were prepared as a solution in 50% DMSO, 50% assay buffer. The final concentration of enzyme in the 100 μL enzymatic reaction was 0.0083 U/μL. A known inhibitor, N-[(4’-bromo [1,1’-biphenyl]-4-yl)sulfonyl]-L-valine (PD166793), was included where noted at a final concentration of 100 μM. OmniMMP fluorogenic substrate was added to the 100 μL enzymatic reaction at a final concentration of 4 μM. For all experiments, 30 μL of enzyme stock solution was added to each well in a 96-well, flat-bottom, black polystyrene microplate (SantaCruz Biotechnology, Dallas, TX, USA), followed by the addition of 10 μL of the effectors (50% assay buffer, 50% DMSO for the uninhibited reaction, PD166793 for the inhibition). The 96-well plate was then incubated in a plate reader at 37 °C for 30 min; concurrently, the substrate solution was also warmed to 37 °C for 30 min. The enzymatic reaction was initiated by adding 60 μL of the omniMMP fluorogenic substrate solution. The change in fluorescence was then monitored for 30 min with excitation and emission wavelengths at 320 and 400 nm, respectively, every 46 s for a total of 40 measurements.

activity at 25 µM | Compound
84.2% | O=C1NC(=O)/C(=C/c2cccnc2)N1 [Compound 19, (Z)-5-[(3′-Pyridinyl)methylene]-2,4-imidazolidinedione]
85.8% | O=C1NC(=O)/C(=C/c2cccc(Br)n2)N1 [Compound 27, (Z)-5-[(6′-Bromo-2-pyridinyl)methylene]-2,4-imidazolidinedione]
69.1% | O=C1NC(=O)/C(=C/c2ncccc2Cl)N1 [Compound 24, (Z)-5-[(3′-Chloro-2-pyridinyl)methylene]-2,4-imidazolidinedione-HCl]
101% | Cc1ccc(/C=C2\NC(=O)NC2=O)nc1 [Compound 22, (Z)-5-[(5′-Methyl-2-pyridinyl)methylene]-2,4-imidazolidinedione]

Same assay, conditions: 200 μM compound; read-out: MMP-12 % Activity @ 200 μM

activity at 200 µM | Compound
50.6% | O=C1NC(=O)/C(=C/c2cccnc2)N1 [Compound 19, (Z)-5-[(3′-Pyridinyl)methylene]-2,4-imidazolidinedione]
88.7% | O=C1NC(=O)/C(=C/c2cccc(Br)n2)N1 [Compound 27, (Z)-5-[(6′-Bromo-2-pyridinyl)methylene]-2,4-imidazolidinedione]
39.2% | O=C1NC(=O)/C(=C/c2ncccc2Cl)N1 [Compound 24, (Z)-5-[(3′-Chloro-2-pyridinyl)methylene]-2,4-imidazolidinedione-HCl]
40.7% | Cc1ccc(/C=C2\NC(=O)NC2=O)nc1 [Compound 22, (Z)-5-[(5′-Methyl-2-pyridinyl)methylene]-2,4-imidazolidinedione]

Molecular target: human carbonic anhydrase II (hCAII) (Homo sapiens, UniProt P00918)
Test: Human carbonic anhydrase II p-nitrophenyl acetate assay
Type: biochemical
Conditions: 200 μM compound
Experimental: as §1
Assays for human carbonic anhydrase II activity were performed in a 96-well plate format for a total reaction volume of 100 μL, in an assay modified from Day and Cohen. All assay reagents and solutions were prepared separately and maintained at 22 °C until warmed to 30 °C. All substrates, effectors, and enzyme were freshly dissolved and diluted in assay buffer containing 50 mM Tris (pH 8.0). The final concentration of the human carbonic anhydrase II enzyme was 200 nM. Where noted, acetazolamide was included at a final concentration of 10 μM. The substrate, p-nitrophenyl acetate, was added at a final concentration of 504 μM. For all experiments, 20 μL of enzyme stock solution was added to each well in a 96-well, flat-bottom, polystyrene microplate (Santa Cruz Biotechnology, Dallas, TX, USA), followed by the addition of 10 μL of the effectors (assay buffer for the uninhibited reaction, acetazolamide for the inhibition). The 96-well plate was then incubated in a plate reader at 30 °C for 10 min; concurrently, the substrate solution was also warmed to 30 °C for 10 min. The enzymatic reaction was initiated by adding 70 μL of the substrate solution (p-nitrophenyl acetate). The absorbance values were then measured at 405 nm every 30 s over a period of 20 min for a total of 40 measurements.

activity at 200 µM | Compound
88.9 ± 12.3% | O=C1NC(=O)/C(=C/c2cccnc2)N1 [Compound 19, (Z)-5-[(3′-Pyridinyl)methylene]-2,4-imidazolidinedione]
86.7 ± 12.1% | O=C1NC(=O)/C(=C/c2cccc(Br)n2)N1 [Compound 27, (Z)-5-[(6′-Bromo-2-pyridinyl)methylene]-2,4-imidazolidinedione]
91.8 ± 14.7% | O=C1NC(=O)/C(=C/c2ncccc2Cl)N1 [Compound 24, (Z)-5-[(3′-Chloro-2-pyridinyl)methylene]-2,4-imidazolidinedione-HCl]
87.4 ± 11.8% | Cc1ccc(/C=C2\NC(=O)NC2=O)nc1 [Compound 22, (Z)-5-[(5′-Methyl-2-pyridinyl)methylene]-2,4-imidazolidinedione]

Molecular target: GSK-3β (Homo sapiens, UniProt P49841)
Sequence (P49841 whole entry): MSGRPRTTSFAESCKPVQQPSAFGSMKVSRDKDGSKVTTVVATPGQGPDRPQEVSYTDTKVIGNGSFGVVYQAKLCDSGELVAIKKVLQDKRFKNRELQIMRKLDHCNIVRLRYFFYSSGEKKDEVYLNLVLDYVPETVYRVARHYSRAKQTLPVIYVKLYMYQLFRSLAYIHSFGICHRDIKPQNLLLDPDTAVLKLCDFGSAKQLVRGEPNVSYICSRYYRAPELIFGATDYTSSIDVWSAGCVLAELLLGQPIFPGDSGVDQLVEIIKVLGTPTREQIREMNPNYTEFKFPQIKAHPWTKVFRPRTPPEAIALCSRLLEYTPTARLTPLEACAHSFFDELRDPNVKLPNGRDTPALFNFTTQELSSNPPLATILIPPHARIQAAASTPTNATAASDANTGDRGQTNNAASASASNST
Test: GSK-3β kinase HotSpot assay (Reaction Biology)
Type: biochemical
Conditions: 25 μM compound, 10 μM ATP, duplicate, average; remaining kinase activity vs vehicle

activity at 25 µM | Compound
71.8% | O=C1NC(=O)/C(=C/c2cccnc2)N1 [Compound 19, (Z)-5-[(3′-Pyridinyl)methylene]-2,4-imidazolidinedione]
17% | O=C1NC(=O)/C(=C/c2cccc(Br)n2)N1 [Compound 27, (Z)-5-[(6′-Bromo-2-pyridinyl)methylene]-2,4-imidazolidinedione]
44.6% | O=C1NC(=O)/C(=C/c2ncccc2Cl)N1 [Compound 24, (Z)-5-[(3′-Chloro-2-pyridinyl)methylene]-2,4-imidazolidinedione-HCl]
47% | Cc1ccc(/C=C2\NC(=O)NC2=O)nc1 [Compound 22, (Z)-5-[(5′-Methyl-2-pyridinyl)methylene]-2,4-imidazolidinedione]

Same assay, conditions: 10-point, triplicate, 10 μM ATP, average ± SD

IC50 | Compound
0.00339 ± 0.00016 mM | O=C1NC(=O)/C(=C/c2cccc(Br)n2)N1 [Compound 27, (Z)-5-[(6′-Bromo-2-pyridinyl)methylene]-2,4-imidazolidinedione]
